# In PubChem BioAssay (NCI):
#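 Dose response: 5 concentrations. Exposure: 48 h. Format: 96-well plates. Endpoint: linear interpolation; highest concentration if not reached. GI50: concentration for 50% inhibition of growth. TGI marks complete inhibition of growth.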
# What was measured:
# Assay in all cases: NCI anticancer screen, dose series, 48 h
# [1] = system: RXF 393 renal
# [2] = system: MOLT-4 leukemia
# [3] = system: MDA-MB-435
# [4] = system: K-562 leukemia
# [5] = system: M14 melanoma
# [6] = system: TK-10 renal
# [7] = system: SN12C renal
# [8] = system: COLO 205 colon
# [9] = system: UO-31 renal
# [10] = system: OVCAR-8 ovarian
# [11] = system: MALME-3M melanoma
# [12] = system: OVCAR-4 ovarian
# [13] = system: UACC-62 melanoma
# [14] = system: HCC-2998 colon
# [15] = system: NCI/ADR-RES ovarian
# [16] = system: NCI-H23 lung
# [17] = system: NCI-H460 lung
# [18] = system: LOX IMVI melanoma
# [19] = system: KM12 colon
# [20] = system: HL-60(TB) leukemia
# [21] = system: SR leukemia
# [22] = system: 786-0 renal
# [23] = system: SW-620 colon
# [24] = system: SK-OV-3 ovarian
# [25] = system: HOP-92 NSCLC
# [26] = system: U251 CNS
# [27] = system: SNB-75 CNS
# [28] = system: SF-539 CNS
# [29] = system: PC-3 prostate
compound,measurement,setting,value
CSc1ccc(/C(=N/N=C(N)N)c2ccccc2)cc1,TGI,[1],781 nM
same,GI50,[2],462 nM
same,TGI,[2],13400 nM
same,GI50,[3],207 nM
same,TGI,[3],478 nM
same,GI50,[4],314 nM
same,TGI,[4],11500 nM
same,GI50,[5],308 nM
same,TGI,[5],1420 nM
same,GI50,[6],4430 nM
same,TGI,[6],20400 nM
same,GI50,[7],536 nM
same,TGI,[7],12500 nM
same,GI50,[8],235 nM
same,TGI,[8],549 nM
same,GI50,[9],747 nM
same,TGI,[9],12600 nM
same,GI50,[10],422 nM
same,TGI,[10],11200 nM
same,GI50,[11],719 nM
same,TGI,[11],13500 nM
same,GI50,[12],5290 nM
same,TGI,[12],27200 nM
same,GI50,[13],473 nM
same,TGI,[13],15000 nM
same,GI50,[14],371 nM
same,TGI,[14],1570 nM
same,GI50,[15],1870 nM
same,TGI,[15],11000 nM
same,GI50,[16],591 nM
same,TGI,[16],14900 nM
same,GI50,[17],361 nM
same,TGI,[17],10700 nM
same,GI50,[18],520 nM
same,TGI,[18],8780 nM
same,GI50,[19],451 nM
same,TGI,[19],14200 nM
same,GI50,[20],274 nM
same,TGI,[20],883 nM
same,GI50,[21],247 nM
same,TGI,[21],2580 nM
same,GI50,[22],924 nM
same,TGI,[22],15800 nM
same,GI50,[23],435 nM
same,TGI,[23],15600 nM
same,GI50,[24],605 nM
same,TGI,[24],15100 nM
same,GI50,[25],409 nM
same,TGI,[25],5320 nM
same,GI50,[26],393 nM
same,TGI,[26],11300 nM
same,GI50,[27],310 nM
same,TGI,[27],3270 nM
same,GI50,[28],301 nM
same,TGI,[28],931 nM
same,GI50,[29],383 nM
same,TGI,[29],10900 nM
